The values below come from article PMC4900628, “Critical Evaluation of P2X7 Receptor Antagonists in Selected Seizure Models” (PLoS ONE, 2016).

Details of data set [1]: method as in earlier work. Conditions: 45.5 mg/kg i.p. every 48h for 1 month, ref [11] of S1 File, cited from earlier work.
Data set [2] is described as follows: Plasma and brain concentration in mice (co-administration with AEDs). The class given is in vivo. Conditions: PTZ-T. How it is done:
Blood was collected intracardially by heart […] pipettes supplemented with heparin-Na (ratiopharm, Ulm, Germany; 10μl of 5.000 I.U./ml) and separated by centrifuging (1500xg for 10 min) at 6-8°C. The plasma was stored at -20°C in plastic tubes. After blood sample collection, rats were decapitated and brains were quickly dissected. After removing the adherent blood by tissue paper and cutting off the cerebellum, the samples were fresh frozen using liquid nitrogen. Brain tissue was stored at -80°C and delivered to the different laboratories on dry ice. For mice (groups with n = 6), a similar procedure was used for the preparation of plasma and brain samples. In experiments in which AFC was co-administered with carbamazepine or ethosuximide, drug concentrations in plasma and brain were estimated to detect potential pharmacokinetic interactions. Samples from experiments with AFC were analysed at the Lead Discovery Center (Dortmund, Germany). Briefly, AFC, carbamazepine and ethosuximide were extracted from plasma and homogenized brain by protein precipitation using acetonitrile. Resulting filtrates were analysed by liquid chromatography tandem-mass spectrometry (LC-MS/MS) using a Prominence UFLC system (Shimadzu, Duisburg, Germany) coupled to a QTrap 5500 instrument (ABSciex, Darmstadt, Germany). The compounds were separated on a Zorbax Eclipse Plus C18 column (Agilent Technologies, Santa Clara, CA, USA) with an acetonitrile/water gradient containing 0.1% formic acid as solvent. Chromatographic conditions and mass spectrometer parameters were optimized for each analyte. Plasma and brain concentrations of the compounds were calculated by means of a standard curve. Data were analysed using SigmaPlot (vers. 12.0, Systat Software, Erkrath, Germany) and SPSS (IBM SPSS Statistics 20, […], Germany), respectively. Results are expressed as mean ± SEM. […] In the MES-T, the current intensity inducing tonic hindlimb extensions in 50% of the mice (CC50 values with confidence limits for 95% probability) and the statistical significance was calculated using Probit analysis (SPSS). […] In the PTZ-T, the number of animals in the group with clonic seizures and the latency time were analysed using Fisher's exact probability test and the Mann-Whitney rank sum test, respectively. For multiple comparisons of the latency time a one-way ANOVA with the Holm-Sidak post hoc test was used. The influence of AFC on the plasma and brain concentrations of the antiepileptic drugs was statistical compared using the same procedure. In the PTZ-kindling model, the mean seizure stage within a group was calculated in relation to the number of PTZ-injections. Statistical comparison between vehicle- and compound-treated groups in this model was performed with two-way repeated measures ANOVA, followed by the Holm-Sidak post hoc test. The mean number of PTZ-injections needed to produce the first generalized seizure (≥ stage 3 convulsions) in the vehicle- versus compound-treated groups was statistically compared using a Mann-Whitney rank sum test. In fully kindled rats, the calculated mean seizure stage within a group after vehicle- and compound-treatment were compared using a paired t-test. P < 0.05 was the accepted minimum level of significance.

The subject of data set [3] is electroshock-induced tonic (hindlimb extension) seizures. Nature of the data set: Maximal electroshock seizure threshold test (MES-T). The data set is classed as in vivo. The conditions noted are these: mice. The procedure:
The stimulus train was applied via ear-clip electrodes (sinusoidal pulses 4-14 mA, 50 Hz, 0.2 s duration) by means of a constant current stimulator (rodent-shocker type 221; Hugo Sachs Elektronik, March-Hugstetten, Germany). […] Groups of 20 mice were used. Control groups, which received the corresponding vehicle, were tested together with the compound-treated groups on the same experimental day. Current intensity-effect curves were obtained on the basis of the number of animals responding with the endpoint at the corresponding current value. The results are calculated as convulsive current fifty (CC50) values (current intensity in mA, necessary to produce tonic hindlimb extension in 50% of the mice tested) including the confidence limits for 95% probability. […] Chemicals, Toronto, Canada) was slowly added. The pH was adjusted with 1N NaOH (similar amount of NaOH as HCl), all with continuous stirring. […] The drug solutions or suspensions were prepared immediately before use; all doses refer to the salts. Animals in the control group received equivalent volumes of the vehicle (in mice always 10 ml/kg, in rats 1 ml/kg [JNJ], 3 ml/kg [AFC] or 4 ml/kg [BBG, TIIAS], depending on the solubility of the different compounds). Doses and peak time effects were selected on the basis of effective doses from corresponding in vivo studies in the literature: BBG (e.g.), tanshinone IIA (e.g.) and from manufacturer's experimental data: AFC, JNJ (see, [80]). Data were analysed using SigmaPlot (vers. 12.0, Systat Software, Erkrath, Germany) and SPSS (IBM SPSS Statistics 20, […], Germany), respectively. Results are expressed as mean ± SEM. […] In the PTZ-T, the number of animals in the group with clonic seizures and the latency time were analysed using Fisher's exact probability test and the Mann-Whitney rank sum test, respectively. […] In the PTZ-kindling model, the mean seizure stage within a group was calculated in relation to the number of PTZ-injections. […] In fully kindled rats, the calculated mean seizure stage within a group after vehicle- and compound-treatment were compared using a paired t-test. […]
On the technique in general: Protection in the maximal electroshock model is a classic sign of anticonvulsant action.

Molecules are shown by their SMILES.

In the case of `CCOc1ccc(Nc2ccc(/C(=C3C=C/C(=[N+](/CC)Cc4cccc(S(=O)(=O)[O-])c4)C=C/3C)c3ccc(N(CC)Cc4cccc(S(=O)(=O)O)c4)cc3C)cc2)cc1` [Brilliant Blue G], the “brain-plasma ratio in mice” value in data set [1] is listed as 0.02. Further, the “brain concentrations in mice” value in data set [1] (spectrophotometric analysis) is 0.15 µM.
With `CCC1(C)CC(=O)NC1=O` (stereo not shown) [Ethosuximide, ethosuximide], the “blood concentrations of ethosuximide on co-application of AFC” value in data set [2] was “did not significantly modulate”. The “brain concentration of ethosuximide alone” value in data set [2] (ethosuximide 100 mg/kg i.p., n = 6) was determined as 377.3 ± 14.3 µM. For the same compound, the “brain concentration of ethosuximide with AFC 50 mg/kg i.p.” value in data set [2] (ethosuximide 100 mg/kg i.p., n = 6, significantly increased) worked out at 453.9 ± 18.7 µM.
`O=C(NCC1(N2CCN(c3ccccc3)CC2)CCOCC1)c1cccnc1Sc1ccccc1` [JNJ-47965567, N-[[4-(4-phenyl-piperazin-1-yl)tetrahydro-2H-pyran-4-yl]-methyl]-2-(phenyl-thio) nicotinamide]: the “seizure threshold in MES-T at the higher doses” value in data set [3] (AFC 50 mg/kg, JNJ 30 mg/kg, alone) is recorded as “small, but non-significant increase in seizure threshold”. Further, the “anticonvulsant effectiveness of co-administration with carbamazepine compared to carbamazepine alone (MES-T)” value in data set [3] (AFC 25 and 50 mg/kg s.c. or JNJ 15 and 30 mg/kg s.c. 30 min before, with carbamazepine 7 mg/kg i.p., P < 0.01) was “significantly increased the anticonvulsant effectiveness”.
